Measurements from ChEMBL document CHEMBL3526058, “Investigating the enteroenteric recirculation of apixaban, a factor Xa inhibitor: administration of activated charcoal to bile duct-cannulated rats and dogs receiving an intravenous dose and use of drug transporter knockout rats” (Drug Metab Dispos, 2013).

Key:
[1] = Drug recovery in bile of bile duct-cannulated P-gp-knockout Sprague-Dawley rat at 2 mg/kg, iv measured up to 24 hrs; type: ADME, organism-based; set-up: dose 2 mg/kg, route intravenous; conditions: read-out: Drug recovery
[2] = Drug recovery in bile of bile duct-cannulated Sprague-Dawley rat at 30 mg/kg, po measured up to 48 hrs; type: ADME, organism-based; set-up: dose 30 mg/kg, route oral; conditions: read-out: Drug recovery
[3] = Cmax in bile duct-cannulated beagle dog at 1 mg/kg, iv administered as 5 mins infusion followed by activated charcoal administration 10 to 420 mins post compound dosing; type: ADME, organism-based, Canis lupus familiaris; set-up: dose 1 mg/kg, route intravenous; conditions: in vivo
Canis familiaris [4] = experiment: Clearance in bile duct-cannulated beagle dog at 1 mg/kg, iv administered as 5 mins infusion followed by activated charcoal administration 10 to 420 mins post compound dosing; type: ADME, organism-based, Canis lupus familiaris; set-up: dose 1 mg/kg, route intravenous; conditions: in vivo
[5] = Drug recovery in feces of Sprague-Dawley rat at 30 mg/kg, po measured up to 168 hrs; type: ADME, organism-based; set-up: dose 30 mg/kg, route oral; conditions: read-out: Drug recovery
[6] = Half life in bile duct-cannulated beagle dog at 1 mg/kg, iv administered as 5 mins infusion; type: ADME, organism-based, Canis lupus familiaris; set-up: dose 1 mg/kg, route intravenous; conditions: in vivo
[7] = Drug recovery in bile of bile duct-cannulated beagle dog at 1 mg/kg, iv administered as 5 mins infusion followed by activated charcoal administration 10 to 420 mins post compound measured up to 72 hrs; type: ADME, organism-based, Canis lupus familiaris; set-up: dose 1 mg/kg, route intravenous; conditions: read-out: Drug recovery
[8] = Mean residence time in wild-type 30 mins activated charcoal pre-treated bile duct-cannulated Sprague-Dawley rat at 2 mg/kg, iv followed by activated charcoal administration 5 to 180 mins post compound dosing; type: ADME, organism-based; set-up: dose 2 mg/kg, route intravenous; conditions: in vivo
[9] = Mean residence time in bile duct-cannulated beagle dog at 1 mg/kg, iv administered as 5 mins infusion; type: ADME, organism-based, Canis lupus familiaris; set-up: dose 1 mg/kg, route intravenous; conditions: in vivo
[10] = Cmax in wild-type 30 mins activated charcoal pre-treated bile duct-cannulated Sprague-Dawley rat at 2 mg/kg, iv followed by activated charcoal administration 5 to 180 mins post compound dosing; type: ADME, organism-based; set-up: dose 2 mg/kg, route intravenous; conditions: in vivo
Rattus norvegicus [11] = experiment: Intestinal clearance in BCRP-knockout Sprague-Dawley rat at 2 mg/kg, iv; type: ADME, organism-based; set-up: dose 2 mg/kg, route intravenous; conditions: in vivo
[12] = Drug recovery in feces of bile duct-cannulated Sprague-Dawley rat at 2 mg/kg, iv administered 1 hr post GF-120918 treatment measured up to 48 hrs; type: ADME, organism-based; set-up: dose 2 mg/kg, route intravenous; conditions: with GF-120918, given 1 hr before the compound, read-out: Drug recovery
Rattus norvegicus [13] = experiment: Intestinal clearance in wild-type bile duct-cannulated Sprague-Dawley rat at 2 mg/kg, iv relative to total clearance; type: ADME, organism-based; set-up: dose 2 mg/kg, route intravenous; conditions: in vivo
Canis familiaris [14] = experiment: Intestinal clearance in bile duct-cannulated beagle dog at 1 mg/kg, iv administered as 5 mins infusion relative to total clearance; type: ADME, organism-based, Canis lupus familiaris; set-up: dose 1 mg/kg, route intravenous; conditions: in vivo
Rattus norvegicus [15] = experiment: Metabolism and biliary clearance in BCRP-knockout Sprague-Dawley rat at 2 mg/kg, iv relative to total clearance; type: ADME, organism-based, Bile; set-up: dose 2 mg/kg, route intravenous; conditions: in vivo
[16] = Clearance in wild-type bile duct-cannulated Sprague-Dawley rat at 2 mg/kg, iv; type: ADME, organism-based; set-up: dose 2 mg/kg, route intravenous; conditions: in vivo
[17] = Drug recovery in urine of Sprague-Dawley rat at 30 mg/kg, po measured up to 168 hrs; type: ADME, organism-based; set-up: dose 30 mg/kg, route oral; conditions: read-out: Drug recovery
Rattus norvegicus [18] = experiment: Intestinal clearance in wild-type bile duct-cannulated Sprague-Dawley rat at 2 mg/kg, iv; type: ADME, organism-based; set-up: dose 2 mg/kg, route intravenous; conditions: in vivo
Rattus norvegicus [19] = experiment: Metabolism and biliary clearance in wild-type bile duct-cannulated Sprague-Dawley rat at 2 mg/kg, iv relative to total clearance; type: ADME, organism-based; set-up: dose 2 mg/kg, route intravenous; conditions: in vivo
Rattus norvegicus [20] = experiment: Renal clearance in wild-type 30 mins activated charcoal pre-treated bile duct-cannulated Sprague-Dawley rat at 2 mg/kg, iv followed by activated charcoal administration 5 to 180 mins post compound dosing relative to total clearance; type: ADME, organism-based, Kidney; set-up: dose 2 mg/kg, route intravenous; conditions: in vivo
[21] = Drug recovery in urine of bile duct-cannulated P-gp-knockout Sprague-Dawley rat at 2 mg/kg, iv measured up to 24 hrs; type: ADME, organism-based; set-up: dose 2 mg/kg, route intravenous; conditions: read-out: Drug recovery
[22] = Volume of distribution at steady state in P-gp-knockout Sprague-Dawley rat at 2 mg/kg, iv; type: ADME, organism-based; set-up: dose 2 mg/kg, route intravenous; conditions: in vivo, read-out: Vdss
Rattus norvegicus [23] = experiment: Intestinal clearance in wild-type bile duct-cannulated Sprague-Dawley rat at 2 mg/kg, iv administered 0.125 hr post GF-120918 treatment relative to total clearance; type: ADME, organism-based; set-up: dose 2 mg/kg, route intravenous; conditions: in vivo
[24] = AUC (0 to infinity) in wild-type bile duct-cannulated Sprague-Dawley rat at 2 mg/kg, iv administered 0.125 hr post GF-120918 treatment; type: ADME, organism-based; set-up: time infinity, dose 2 mg/kg, route intravenous; conditions: in vivo, with GF-120918
[25] = Volume of distribution at steady state in wild-type bile duct-cannulated Sprague-Dawley rat at 2 mg/kg, iv administered 0.125 hr post GF-120918 treatment; type: ADME, organism-based; set-up: dose 2 mg/kg, route intravenous; conditions: in vivo, with GF-120918, read-out: Vdss
[26] = Mean residence time in P-gp-knockout Sprague-Dawley rat at 2 mg/kg, iv; type: ADME, organism-based; set-up: dose 2 mg/kg, route intravenous; conditions: in vivo
[27] = Half life in wild-type 30 mins activated charcoal pre-treated bile duct-cannulated Sprague-Dawley rat at 2 mg/kg, iv followed by activated charcoal administration 5 to 180 mins post compound dosing; type: ADME, organism-based; set-up: dose 2 mg/kg, route intravenous; conditions: in vivo
Rattus norvegicus [28] = experiment: Intestinal clearance in P-gp-knockout Sprague-Dawley rat at 2 mg/kg, iv relative to total clearance; type: ADME, organism-based; set-up: dose 2 mg/kg, route intravenous; conditions: in vivo
[29] = Drug recovery in urine of bile duct-cannulated Sprague-Dawley rat at 2 mg/kg, iv measured up to 24 hrs; type: ADME, organism-based; set-up: dose 2 mg/kg, route intravenous; conditions: read-out: Drug recovery
[30] = Drug recovery in urine of beagle dog at 5 mg/kg, po measured up to 72 hrs; type: ADME, organism-based, Canis lupus familiaris; set-up: dose 5 mg/kg, route oral; conditions: read-out: Drug recovery
[31] = Volume of distribution at steady state in wild-type bile duct-cannulated Sprague-Dawley rat at 2 mg/kg, iv; type: ADME, organism-based; set-up: dose 2 mg/kg, route intravenous; conditions: in vivo, read-out: Vdss
[32] = Drug recovery in urine of bile duct-cannulated Sprague-Dawley rat at 30 mg/kg, po measured up to 48 hrs; type: ADME, organism-based; set-up: dose 30 mg/kg, route oral; conditions: read-out: Drug recovery
[33] = Clearance in wild-type bile duct-cannulated Sprague-Dawley rat at 2 mg/kg, iv administered 0.125 hr post GF-120918 treatment; type: ADME, organism-based; set-up: dose 2 mg/kg, route intravenous; conditions: in vivo, with GF-120918
[34] = Drug recovery in bile of bile duct-cannulated Sprague-Dawley rat at 2 mg/kg, iv administered 1 hr post GF-120918 treatment measured up to 48 hrs; type: ADME, organism-based; set-up: dose 2 mg/kg, route intravenous; conditions: with GF-120918, given 1 hr before the compound, read-out: Drug recovery
[35] = AUC (0 to infinity) in wild-type bile duct-cannulated Sprague-Dawley rat at 2 mg/kg, iv; type: ADME, organism-based; set-up: time infinity, dose 2 mg/kg, route intravenous; conditions: in vivo
[36] = AUC (0 to infinity) in P-gp-knockout Sprague-Dawley rat at 2 mg/kg, iv; type: ADME, organism-based; set-up: time infinity, dose 2 mg/kg, route intravenous; conditions: plasma
Canis familiaris [37] = experiment: Intestinal clearance in bile duct-cannulated beagle dog at 1 mg/kg, iv administered as 5 mins infusion; type: ADME, organism-based, Canis lupus familiaris; set-up: dose 1 mg/kg, route intravenous; conditions: in vivo
Rattus norvegicus [38] = experiment: Intestinal clearance in wild-type 30 mins activated charcoal pre-treated bile duct-cannulated Sprague-Dawley rat at 2 mg/kg, iv followed by activated charcoal administration 5 to 180 mins post compound dosing; type: ADME, organism-based; set-up: dose 2 mg/kg, route intravenous; conditions: in vivo
[39] = Drug recovery in feces of bile duct-cannulated P-gp-knockout Sprague-Dawley rat at 2 mg/kg, iv measured up to 24 hrs; type: ADME, organism-based; set-up: dose 2 mg/kg, route intravenous; conditions: read-out: Drug recovery
[40] = Clearance in BCRP-knockout Sprague-Dawley rat at 2 mg/kg, iv; type: ADME, organism-based; set-up: dose 2 mg/kg, route intravenous; conditions: in vivo
Rattus norvegicus [41] = experiment: Intestinal clearance in wild-type 30 mins activated charcoal pre-treated bile duct-cannulated Sprague-Dawley rat at 2 mg/kg, iv followed by activated charcoal administration 5 to 180 mins post compound dosing relative to total clearance; type: ADME, organism-based; set-up: dose 2 mg/kg, route intravenous; conditions: in vivo
[42] = Cmax in bile duct-cannulated beagle dog at 1 mg/kg, iv administered as 5 mins infusion; type: ADME, organism-based, Canis lupus familiaris; set-up: dose 1 mg/kg, route intravenous; conditions: in vivo
[43] = AUC (0 to infinity) in wild-type 30 mins activated charcoal pre-treated bile duct-cannulated Sprague-Dawley rat at 2 mg/kg, iv followed by activated charcoal administration 5 to 180 mins post compound dosing; type: ADME, organism-based; set-up: time infinity, dose 2 mg/kg, route intravenous; conditions: in vivo

dose excreted at 24 h [1]: 14.1%
dose excreted at 48 h [2]: 2.6%
Cmax [3]: 4330 ng/mL
CL (Canis familiaris [4]): 0.833 mL/min/kg
dose excreted at 168 h [5]: 74%
half-life [6]: 174 min
dose excreted [7]: 13.1%
MRT [8]: 36 min
MRT [9]: 156 min
Cmax [10]: 1640 ng/mL
CL (Rattus norvegicus [11]): 5.67 mL/min/kg
dose excreted [12]: 13.8%
CL (Rattus norvegicus [13]): 21%
CL (Canis familiaris [14]): 43%
CL (Rattus norvegicus [15]): 30%
clearance [16]: 23.3 mL/min/kg
dose excreted at 168 h [17]: 13.4%
CL (Rattus norvegicus [18]): 5 mL/min/kg
CL (Rattus norvegicus [19]): 28%
CL (Rattus norvegicus [20]): 39%
dose excreted at 24 h [21]: 44.3%
Vd [22]: 0.7 L/kg
CL (Rattus norvegicus [23]): 14%
AUC(0-inf) [24]: 2840 ng·h/mL
Vd [25]: 1.6 L/kg
MRT [26]: 48 min
half-life [27]: 48 min
CL (Rattus norvegicus [28]): 24%
dose excreted at 24 h [29]: 49.5%
dose excreted at 72 h [30]: 8.8%
Vd [31]: 0.9 L/kg
dose excreted at 48 h [32]: 10.5%
clearance [33]: 11.7 mL/min/kg
dose excreted [34]: 14.7%
AUC(0-inf) [35]: 1410 ng·h/mL
AUC(0-inf) [36]: 2040 ng·h/mL
CL (Canis familiaris [37]): 0.287 mL/min/kg
CL (Rattus norvegicus [38]): 9.17 mL/min/kg
dose excreted at 24 h [39]: 24.9%
clearance [40]: 15 mL/min/kg
CL (Rattus norvegicus [41]): 28%
Cmax [42]: 4430 ng/mL
AUC(0-inf) [43]: 1020 ng·h/mL
Compound: COc1ccc(-n2nc(C(N)=O)c3c2[14C](=O)N(c2ccc(N4CCCCC4=O)cc2)CC3)cc1
